Reference: patent US8063101B2, “Carotenoid analogs and derivatives for the prevention of platelet aggregation” (Cardax Pharmaceuticals, Inc., priority 2007, dated 2011)

Columns and labels:
[1] = system: platelets; experiment: Platelet nitric oxide/peroxynitrite release ratio after IP3 stimulation; assay type: cell-based; conditions: aspirin separately, 1.0 μM; IP3 1.0 μM
Text: Values are reported as mean±S.D. (N=5). *p<0.05 and **p<0.001 versus control; †p<0.01 and ‡p<0.001 versus aspirin alone (ANOVA Student-Newman-Keuls multiple comparisons test; overall ANOVA: p<0.0001; F=129.98). Abbreviations: Astax=Astaxanthin. […] Values are reported as mean±S.D. (N=5). *p<0.05 and **p<0.001 versus control; †p<0.001 versus simvastatin alone (ANOVA Student-Newman-Keuls multiple comparisons test; overall ANOVA: p<0.0001; F=84.477). Abbreviations: Astax=Astaxanthin; Simva=Simvastatin. […] Values are reported as mean±S.D. (N=5). *p<0.05 and †p<0.001 versus control; §p<0.001 versus astaxanthin treatment (ANOVA Student-Newman-Keuls multiple comparisons test; overall ANOVA: p<0.0001; F=40.020).

[2] = system: platelets; experiment: Platelet-derived peroxynitrite release after IP3 stimulation; assay type: cell-based; conditions: compound alone at 1.0 μM; IP3 1.0 μM; FIG. 12
Text: Values are reported as mean±S.D. (N=5). *p<0.001 and †p<0.05 versus control; §p<0.001 versus aspirin treatment (ANOVA Student-Newman-Keuls multiple comparisons test; overall ANOVA: p<0.0001; F=52.475). […] Values are reported as mean±S.D. (N=5). *p<0.001 versus control and †p<0.001 versus aspirin alone (ANOVA Student-Newman-Keuls multiple comparisons test; overall ANOVA: p<0.0001; F=21.905). Abbreviations: Astax=Astaxanthin. […] Values are reported as mean±S.D. (N=5). *p<0.05 and **p<0.001 versus control; †p<0.05 and ‡p<0.001 versus simvastatin alone (ANOVA Student-Newman-Keuls multiple comparisons test; overall ANOVA: p<0.0001; F=13.716). Abbreviations: Astax=Astaxanthin; Simva=Simvastatin.

## CC(=O)Oc1ccccc1C(=O)O [aspirin, reference compound]
[1]
  effect on NO/ONOO— ratio: failed to produce a favorable effect
[2]
  effect on platelet ONOO— release: increased
